Data from paper PMC4448943 (Neurotoxicology, 2014).
Where two headings read alike, the source gives them in different places.

What was measured:
rats = settings: rat, in vivo, cited from earlier work
[1] = test system: Adult male Sprague-Dawley rats; settings: rat, in vivo
rat hippocampal AChE = biological target: T1, rat hippocampal AChE (Rattus norvegicus, UniProt P37136); format: biochemical
T1 sequence (P37136 32-614): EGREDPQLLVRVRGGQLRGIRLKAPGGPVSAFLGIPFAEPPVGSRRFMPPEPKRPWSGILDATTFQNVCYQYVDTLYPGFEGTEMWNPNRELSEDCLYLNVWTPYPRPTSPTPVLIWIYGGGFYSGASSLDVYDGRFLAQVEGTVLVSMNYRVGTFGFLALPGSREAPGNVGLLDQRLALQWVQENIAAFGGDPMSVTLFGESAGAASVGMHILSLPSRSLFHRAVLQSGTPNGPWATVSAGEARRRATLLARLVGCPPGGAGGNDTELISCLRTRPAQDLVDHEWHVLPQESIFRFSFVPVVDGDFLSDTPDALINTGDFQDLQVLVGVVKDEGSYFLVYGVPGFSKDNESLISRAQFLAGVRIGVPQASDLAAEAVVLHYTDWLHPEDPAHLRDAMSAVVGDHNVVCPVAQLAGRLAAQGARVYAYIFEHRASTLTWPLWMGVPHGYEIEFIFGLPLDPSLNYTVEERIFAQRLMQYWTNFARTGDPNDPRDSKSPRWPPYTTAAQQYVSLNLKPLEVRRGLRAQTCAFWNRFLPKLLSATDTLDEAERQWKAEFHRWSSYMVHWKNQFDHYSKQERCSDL

rat hippocampal FAAH = biological target: T2, rat hippocampal FAAH (Rattus norvegicus, UniProt P97612); assay: In vitro inhibition of hippocampal FAAH activity; format: biochemical
T2 sequence (P97612 1-579): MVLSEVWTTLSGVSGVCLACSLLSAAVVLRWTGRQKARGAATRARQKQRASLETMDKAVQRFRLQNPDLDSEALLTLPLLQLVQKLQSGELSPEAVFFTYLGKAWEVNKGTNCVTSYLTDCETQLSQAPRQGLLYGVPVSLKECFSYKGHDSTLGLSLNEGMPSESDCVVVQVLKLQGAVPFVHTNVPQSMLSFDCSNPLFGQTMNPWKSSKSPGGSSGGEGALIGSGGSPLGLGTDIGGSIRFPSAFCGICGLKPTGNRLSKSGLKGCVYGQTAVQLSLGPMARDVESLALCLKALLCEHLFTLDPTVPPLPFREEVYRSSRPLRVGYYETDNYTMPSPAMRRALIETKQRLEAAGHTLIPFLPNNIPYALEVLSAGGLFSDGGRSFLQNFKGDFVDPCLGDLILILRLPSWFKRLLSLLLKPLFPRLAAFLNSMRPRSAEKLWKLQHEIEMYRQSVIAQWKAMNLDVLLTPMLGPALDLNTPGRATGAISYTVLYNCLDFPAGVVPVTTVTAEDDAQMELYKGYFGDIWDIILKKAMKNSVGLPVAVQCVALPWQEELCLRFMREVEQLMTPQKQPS

hippocampal MAGL = biological target: T3, hippocampal MAGL (Rattus norvegicus, UniProt Q8R431); format: in vivo; settings: four hours after dosing; PO 0.3 and 0.6 mg/kg sc, CPO 6 and 12 mg/kg sc
T3 sequence (Q8R431 1-303): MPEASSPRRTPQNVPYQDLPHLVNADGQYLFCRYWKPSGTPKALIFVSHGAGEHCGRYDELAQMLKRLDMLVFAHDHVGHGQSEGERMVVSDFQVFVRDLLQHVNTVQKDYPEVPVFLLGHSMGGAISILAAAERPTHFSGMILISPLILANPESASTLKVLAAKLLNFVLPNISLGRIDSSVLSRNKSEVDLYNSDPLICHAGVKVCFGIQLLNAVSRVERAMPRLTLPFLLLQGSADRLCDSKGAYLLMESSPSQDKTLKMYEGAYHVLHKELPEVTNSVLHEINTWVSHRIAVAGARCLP

hippocampal AChE = biological target: T4, hippocampal AChE (Rattus norvegicus, UniProt P37136); format: in vivo
T4 sequence (P37136 32-614): T1 sequence (P37136 32-614)

[2] = test system: Adult male Sprague-Dawley rats; settings: rat, in vivo; remark: listed apart in the source
rat hippocampal MAGL = biological target: T5, rat hippocampal MAGL (Rattus norvegicus, UniProt Q8R431); assay: In vitro inhibition of hippocampal MAGL activity; format: biochemical; settings: CPO more potent than PO
T5 sequence (Q8R431 1-303): T3 sequence (Q8R431 1-303)

hippocampal FAAH = biological target: T6, hippocampal FAAH (Rattus norvegicus, UniProt P97612); settings: four hours after dosing, PO 0.3 and 0.6 mg/kg sc, CPO 6 and 12 mg/kg sc
T6 sequence (P97612 1-579): T2 sequence (P97612 1-579)

For Cc1c(C(=O)NN2CCCCC2)nn(-c2ccc(Cl)cc2Cl)c1-c1ccc(I)cc1 [AM251, N-(piperidin-1-yl)-5-(4-iodophenyl)-1-(2,4-dichlorophenyl)-4-methyl-1H-pyrazole-3-carboxamide], the “Influence on responses to chlorpyrifos” value (rats) is given as “no influence”.

In the case of Cc1c(C(=O)c2cccc3ccccc23)c2cccc3c2n1[C@H](CN1CCOCC1)CO3 [WIN 55,212-2], the “Effect on signs of cholinergic toxicity following acute PO exposure” value (rats; po) is given as “reduced”.

In the case of CCOP(=O)(OCC)Oc1nc(Cl)c(Cl)cc1Cl [chlorpyrifos oxon], the Lethality ([1]; male, Sprague-Dawley) is reported as 0/6, the Lethality [1] is reported as “no lethality” and the “In vitro potency at inhibiting AChE relative to PO” value (rat hippocampal AChE) is reported as “≈ 2 fold”. The IC50 (rat hippocampal FAAH) was 71 nM, the “In vitro potency at inhibiting FAAH relative to PO” value (rat hippocampal FAAH; CPO more potent than PO) was “≈ 8 fold” and the “In vivo inhibition of hippocampal MAGL activity” value (hippocampal MAGL) was 37–50%. The “In vivo inhibition of hippocampal AChE activity” value (hippocampal AChE; rat, in vivo) was 80–90%, the “Involuntary movements (tremors)” value [2] was “dose-related” and the “SLUD signs (primarily defecation and lacrimation)” value [2] was “slightly increased”. For the same compound, the “In vitro potency at inhibiting MAGL relative to PO” value (rat hippocampal MAGL) was “≈ 19 fold”, the “In vivo inhibition of hippocampal FAAH activity” value (hippocampal FAAH) was 90–95% and the “In vivo inhibition of hippocampal FAAH activity” value (hippocampal FAAH; listed as CPO) was 80–90%.

In the case of CCOP(=O)(OCC)Oc1ccc([N+](=O)[O-])cc1 [paraoxon, Paraoxon], the Lethality ([1]; male, Sprague-Dawley, 0.6 mg/kg) is reported as 2/14, the IC50 (rat hippocampal FAAH) is reported as 562 nM and the “In vivo inhibition of hippocampal MAGL activity” value (hippocampal MAGL) is reported as “neither dosage of paraoxon affected MAGL activity”. For the same compound, the “In vivo inhibition of hippocampal AChE activity” value (hippocampal AChE; four hours after dosing, PO 0.3 and 0.6 mg/kg sc, CPO 6 and 12 mg/kg sc) was 80–90%, the “Involuntary movements (tremors)” value [2] was “dose-related” and the “SLUD signs (primarily defecation and lacrimation)” value [2] was “slightly increased”. The “In vivo inhibition of hippocampal FAAH activity” value (hippocampal FAAH) was 90–95% and the “In vivo inhibition of hippocampal FAAH activity” value (hippocampal FAAH; listed as PO) was 80–90%.
